# Laboratory results taken from patent US12390460B2, “Treatment for obesity” (1GLOBE BIOMEDICAL CO., LTD., priority 2018, dated 2025).
# Assays:
# human HepG2 liver cells [1] = test: Intracellular fat content in HepG2 cells, AdipoRed/Hoechst 33258 double staining, 48 hours; assay type: cell-based; details: HepG2, 0.8 mM palmitoleic acid, 0.1 μM compound, FIG. 10C; for palmitoleic acid-induced increase of intracellular triglyceride content: vs DMSO
# Protocol: And the effects of Compound 001, Compound 004, Compound 006, Compound 013, Compound 132, Compound 133 and Compound 134, as further exemplary compounds of the invention, were also tested. Human HepG2 liver cells were incubated with 0.8 mM palmitoleic acid in EMEM medium for 48 hours in the presence of 0.1 μM compounds of the invention or control vehicle, DMSO. Subsequently, the cells were washed with PBS and the intracellular fat content was measured by AdipoRed/Hoechst 33258 double staining, which was assessed by flourometry.
# human HepG2 liver cells [2] = test: Intracellular fat content in HepG2 cells, AdipoRed/Hoechst 33258 double staining, 24 hours; assay type: cell-based; details: HepG2, 0.8 mM palmitoleic acid, 0.1 μM compound, FIG. 10B; for palmitoleic acid-induced increase of intracellular triglyceride content: vs DMSO
# Protocol: The effects of Compound 13-3-1, Compound 13-3-2, Compound 13-3-3, Compound 13-3-5, Compound 13-3-6, Compound 13-3-7, Compound 15-1, Compound 13-3-10 and Compound 13-3-11, as exemplary compounds of the invention, were tested. Human HepG2 liver cells were incubated with 0.8 mM palmitoleic acid in EMEM medium for 24 hours in the presence of 0.1 μM compounds or control vehicle, DMSO. Subsequently, the cells were washed with PBS and the intracellular fat content was measured by AdipoRed/Hoechst 33258 double staining, which was assessed by flourometry.
Structure (SMILES),inhibitory effect on fat accumulation as compared to Compound 14-3 (human HepG2 liver cells [1]),palmitoleic acid-induced increase of intracellular triglyceride content (human HepG2 liver cells [1]),inhibitory effect on fat accumulation as compared to Compound 14-3 (human HepG2 liver cells [2]),palmitoleic acid-induced increase of intracellular triglyceride content (human HepG2 liver cells [2])
[2H]C([2H])(NC(=O)c1c(C)[nH]c(/C=C2\C(=O)Nc3ccc(-c4csc(-c5ccccc5)n4)cc32)c1C)C([2H])([2H])N(CC)CC [Compound 001],comparable or greater,markedly suppressed,,
[2H]C([2H])([2H])C([2H])([2H])N(C([2H])([2H])C([2H])([2H])[2H])C([2H])([2H])C([2H])([2H])NC(=O)c1c(C)[nH]c(/C=C2\C(=O)Nc3ccc(-c4csc(-c5ccccc5)n4)cc32)c1C [Compound 004],comparable or greater,markedly suppressed,,
[2H]c1c([2H])c([2H])c(-c2nc(-c3ccc4c(c3)/C(=C/c3[nH]c(C)c(C(=O)NC([2H])([2H])C([2H])([2H])N(C([2H])([2H])C([2H])([2H])[2H])C([2H])([2H])C([2H])([2H])[2H])c3C)C(=O)N4)cs2)c([2H])c1[2H] [Compound 006],comparable or greater,markedly suppressed,,
CCN(CC)CCNC(=O)c1c(C)[nH]c(/C=C2\C(=O)Nc3ccc(-c4csc(Nc5ccccc5)n4)cc32)c1C [Compound 13-3-1],,,comparable or greater,markedly suppressed
CCN(CC)CCNC(=O)c1c(C)[nH]c(/C=C2\C(=O)Nc3ccc(-c4csc(N5CCCCC5)n4)cc32)c1C [Compound 13-3-2],,,comparable or greater,markedly suppressed
CCN(CC)CCNC(=O)c1c(C)[nH]c(/C=C2\C(=O)Nc3cccc(-c4cnc(OC)nc4)c32)c1C [Compound 13-3-5],,,comparable or greater,markedly suppressed
CCN(CC)CCC(=O)N1CCN(c2ccc(/C=C3\C(=O)Nc4ccc(-c5csc(-c6ccccc6)n5)cc43)cc2)CC1 [Compound 13-3-6],,,comparable or greater,markedly suppressed
CCN(CC)CCNC(=O)CCc1c(C)[nH]c(/C=C2\C(=O)Nc3ccc(-c4csc(-c5ccccc5)n4)cc32)c1C [Compound 13-3-7],,,comparable or greater,markedly suppressed
CCN(CC)CCNC(=O)c1c(C)[nH]c(/C=C2\C(=O)Nc3cnc(-c4csc(-c5ccccc5)n4)cc32)c1C [Compound 13-3-10],,,comparable or greater,markedly suppressed
CCN(CC)CCNC(=O)c1c(C)[nH]c(/C=C2\C(=O)Nc3ccc(C4CCN(c5ccccc5)CC4)cc32)c1C [Compound 13-3-11],,,comparable or greater,markedly suppressed
[2H]c1c([2H])c([2H])c(-c2nc(-c3ccc4c(c3)/C(=C/c3[nH]c(C)c(C(=O)NC([2H])([2H])C([2H])([2H])N(CC)CC)c3C)C(=O)N4)cs2)c([2H])c1[2H] [Compound 013],comparable or greater,markedly suppressed,,
Cc1[nH]c(/C=C2\C(=O)Nc3ccc(-c4csc(-c5cccnc5)n4)cc32)c(C)c1C(=O)N1CCN(C)CC1 [Compound 15-1],,,comparable or greater,markedly suppressed
